Data on 18 molecules can be found in US20240209001A1, “HETEROCYCLIC DERIVATIVES AS JANUS KINASE INHIBITORS” (CHIESI FARMACEUTICI S.P. A., priority 2021, published 2024).

The target of assay [1] is T1, JAK 1 (Homo sapiens (Human), UniProt P23458). As to the kind of experiment: Biochemical potency JAK1, TR-FRET LANCE Ultra kinase assay (examples 1a-10a). The settings on record: ATP corresponding to Km. From the text: Pharmacological Activity of the Compounds of the Invention (1a-10a).
The objective of this study was to assess the activity of novel JAK inhibitors measuring the capability of compounds to inhibit JAK1 kinase activity in a biochemical time-resolved fluorescence resonance energy transfer (TR-FRET) LANCE assay. In LANCE Ultra kinase assay in the presence of JAK1 kinase and ATP (corresponding to Km), the ULight peptide substrate (LANCE Ulight-JAK-1 (Tyr1023) Peptide, Perkin Elmer, TRF0121) was phosphorylated. It was then captured by a Eu-anti-phospho-substrate antibody (LANCE Eu-W1024 Anti-phosphotyrosine (PT66), Perkin Elmer, AD0069), which brought the Eu-chelate donor and ULight acceptor dyes into close proximity. Upon excitation at 320 nm, the Eu-chelate transfers its energy to the ULight dye, resulting in a fluorescent light emission at 665 nm. Inhibitors were tested at 11 consecutive 5-fold dilutions starting from 30 μM (30 μM-[…]) in duplicate. Calculation of IC50 data, curves and QC analysis were made using Excel tools and GraphPadPrism software. QC criteria parameters: Z′≥0.5, Hill Slope range 0.5 to 5, S:B>2.

Assay [2] relates to IL-2 induced phosphorylation of STAT5 (JAK1/JAK3 activity) in human peripheral blood mononuclear cells (PBMCs). Nature of the assay: Cell based assay PBMC (IL-2 stimulated pSTAT5). The settings on record: 0.5 h, rh IL-2, 30 min incubation, pSTAT5 ELISA, read-out: Cell Based assay PBMC (IL-2 stimulated pSTAT5), data displayed as pIC50 (converted). Here is the method:
In addition to enzymatic potency, the effects of the inhibitors against JAK1/JAK3 activity in a cellular assay was characterized against IL-2 induced phosphorylation of STAT5 level in human peripheral blood mononuclear cells (PBMCs).
PBMC have been isolated from human healthy volunteers. Cells were seeded in wells and treated with compounds and rh IL-2. After 30 min incubation cells were lysed and pSTAT5 determined by PathScan phospho-stat5 (Tyr694) ELISA (Cell signaling). Inhibitors were tested at 11 consecutive 5-fold dilutions starting from 30 μM (30 μM-[…]) in duplicate. Calculation of IC50 data, curves and QC analysis were made using Excel tools and GraphPadPrism software. QC criteria parameters: Z′≥0.35, Hill Slope range 0.5 to 5, S:B>2.
In general terms: ELISA stands for enzyme-linked immunosorbent assay.

Assay [3] addresses T1, JAK 1. Nature of the assay: Biochemical potency on JAK1, TR-FRET LANCE Ultra kinase assay (compounds 1-92). The settings on record: ATP at Km, read-out: JAK1 inhibitory activity (pIC50 class) (converted). The essentials:
(§1)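 TR-FRET (LANCE Ultra) phosphorylation of ULight-JAK-1 peptide, ATP at Km: JAK1/JAK2/JAK3/TYK2 peptide 30/50/20/10 nM, ATP 20/0.7/0.2/12 μM, enzyme 0.15/0.083/0.025/0.144 ng/μL. 11-point 5-fold series from 20 μM; 1.5 h RT, EDTA stop, Eu-anti-pTyr detection 1 h; IC50 by variable-slope fit.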

The target of another assay is JAK 3 (Homo sapiens (Human), UniProt P52333). Nature of the assay: Biochemical potency on JAK3, TR-FRET LANCE Ultra kinase assay (compounds 1-92). The settings on record: ATP at Km, read-out: JAK3 inhibitory activity (pIC50 class) (converted). The gist of the method:
as §1
In general terms: TR-FRET usually uses a lanthanide donor and a delayed reading to cut background.

For another assay, the target named is JAK 2 (Homo sapiens (Human), UniProt O60674). Nature of the assay: Biochemical potency on JAK2, TR-FRET LANCE Ultra kinase assay (compounds 1-92). The settings on record: ATP at Km, read-out: JAK2 inhibitory activity (pIC50 class) (converted). The essentials: as §1
Chain of JAK 2 (O60674 whole entry): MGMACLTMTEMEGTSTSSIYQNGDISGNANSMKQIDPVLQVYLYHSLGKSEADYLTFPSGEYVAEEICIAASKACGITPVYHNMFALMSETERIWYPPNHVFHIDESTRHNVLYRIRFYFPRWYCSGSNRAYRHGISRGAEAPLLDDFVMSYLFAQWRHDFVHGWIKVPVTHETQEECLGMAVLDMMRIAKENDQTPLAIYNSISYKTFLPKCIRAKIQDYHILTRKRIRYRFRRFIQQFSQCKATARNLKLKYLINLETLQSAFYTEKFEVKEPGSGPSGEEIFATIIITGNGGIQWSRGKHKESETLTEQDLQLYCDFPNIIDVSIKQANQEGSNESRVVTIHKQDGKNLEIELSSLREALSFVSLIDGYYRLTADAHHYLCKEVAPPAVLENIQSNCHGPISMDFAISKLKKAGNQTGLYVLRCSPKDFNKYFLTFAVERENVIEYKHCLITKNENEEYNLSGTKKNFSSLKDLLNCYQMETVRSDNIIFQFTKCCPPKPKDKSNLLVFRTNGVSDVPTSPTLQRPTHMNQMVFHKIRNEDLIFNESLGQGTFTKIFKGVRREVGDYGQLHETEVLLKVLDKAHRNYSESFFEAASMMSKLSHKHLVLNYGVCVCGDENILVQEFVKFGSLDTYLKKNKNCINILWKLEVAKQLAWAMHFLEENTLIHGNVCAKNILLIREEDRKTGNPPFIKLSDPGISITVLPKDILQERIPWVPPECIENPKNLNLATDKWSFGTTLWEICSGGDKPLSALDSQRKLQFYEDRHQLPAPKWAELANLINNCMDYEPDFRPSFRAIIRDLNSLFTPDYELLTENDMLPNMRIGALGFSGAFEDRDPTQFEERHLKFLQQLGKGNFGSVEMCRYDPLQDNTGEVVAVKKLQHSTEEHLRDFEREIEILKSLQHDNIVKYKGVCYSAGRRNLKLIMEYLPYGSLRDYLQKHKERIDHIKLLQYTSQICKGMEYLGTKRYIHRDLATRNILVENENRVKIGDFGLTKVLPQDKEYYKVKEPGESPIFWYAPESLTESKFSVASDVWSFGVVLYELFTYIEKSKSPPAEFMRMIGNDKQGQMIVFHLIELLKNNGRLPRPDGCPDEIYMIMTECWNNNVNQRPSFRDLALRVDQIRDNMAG
The target in a further assay is TYK2 (Homo sapiens (Human), UniProt P29597). Nature of the assay: Biochemical potency on Tyk2, TR-FRET LANCE Ultra kinase assay (compounds 1-92). To be noted: ATP at Km, read-out: Tyk2 inhibitory activity (pIC50 class) (converted). The gist of the method:
as §1

T1 sequence (P23458 whole entry): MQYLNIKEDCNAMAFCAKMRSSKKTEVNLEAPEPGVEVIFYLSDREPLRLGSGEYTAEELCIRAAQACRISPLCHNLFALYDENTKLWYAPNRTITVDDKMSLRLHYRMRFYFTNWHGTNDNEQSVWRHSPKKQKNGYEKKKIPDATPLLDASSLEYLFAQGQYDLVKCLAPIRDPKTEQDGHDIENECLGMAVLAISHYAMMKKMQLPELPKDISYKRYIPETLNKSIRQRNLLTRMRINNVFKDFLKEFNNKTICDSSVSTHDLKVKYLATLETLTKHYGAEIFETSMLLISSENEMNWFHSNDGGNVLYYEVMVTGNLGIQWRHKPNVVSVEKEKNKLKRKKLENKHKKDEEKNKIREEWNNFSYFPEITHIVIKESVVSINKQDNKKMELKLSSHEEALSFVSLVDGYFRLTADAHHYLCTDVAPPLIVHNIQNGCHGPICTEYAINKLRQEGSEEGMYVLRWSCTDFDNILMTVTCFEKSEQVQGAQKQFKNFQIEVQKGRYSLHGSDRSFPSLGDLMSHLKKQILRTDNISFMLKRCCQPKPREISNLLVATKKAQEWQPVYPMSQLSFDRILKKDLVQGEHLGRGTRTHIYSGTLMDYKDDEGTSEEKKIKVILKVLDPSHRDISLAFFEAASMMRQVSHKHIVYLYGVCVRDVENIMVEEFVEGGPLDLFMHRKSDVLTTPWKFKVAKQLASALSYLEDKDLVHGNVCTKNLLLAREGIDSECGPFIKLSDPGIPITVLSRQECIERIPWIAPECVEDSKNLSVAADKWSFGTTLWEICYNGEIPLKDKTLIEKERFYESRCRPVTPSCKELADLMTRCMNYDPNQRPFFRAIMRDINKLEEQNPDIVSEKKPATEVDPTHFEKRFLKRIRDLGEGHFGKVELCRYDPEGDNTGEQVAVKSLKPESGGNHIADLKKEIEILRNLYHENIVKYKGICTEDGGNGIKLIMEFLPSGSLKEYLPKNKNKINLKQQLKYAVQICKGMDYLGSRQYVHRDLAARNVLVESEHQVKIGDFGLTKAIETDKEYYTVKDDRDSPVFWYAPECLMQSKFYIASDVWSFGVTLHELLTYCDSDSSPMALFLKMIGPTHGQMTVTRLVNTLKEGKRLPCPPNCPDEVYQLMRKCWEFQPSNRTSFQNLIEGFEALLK
Chain of TYK2 (P29597 whole entry): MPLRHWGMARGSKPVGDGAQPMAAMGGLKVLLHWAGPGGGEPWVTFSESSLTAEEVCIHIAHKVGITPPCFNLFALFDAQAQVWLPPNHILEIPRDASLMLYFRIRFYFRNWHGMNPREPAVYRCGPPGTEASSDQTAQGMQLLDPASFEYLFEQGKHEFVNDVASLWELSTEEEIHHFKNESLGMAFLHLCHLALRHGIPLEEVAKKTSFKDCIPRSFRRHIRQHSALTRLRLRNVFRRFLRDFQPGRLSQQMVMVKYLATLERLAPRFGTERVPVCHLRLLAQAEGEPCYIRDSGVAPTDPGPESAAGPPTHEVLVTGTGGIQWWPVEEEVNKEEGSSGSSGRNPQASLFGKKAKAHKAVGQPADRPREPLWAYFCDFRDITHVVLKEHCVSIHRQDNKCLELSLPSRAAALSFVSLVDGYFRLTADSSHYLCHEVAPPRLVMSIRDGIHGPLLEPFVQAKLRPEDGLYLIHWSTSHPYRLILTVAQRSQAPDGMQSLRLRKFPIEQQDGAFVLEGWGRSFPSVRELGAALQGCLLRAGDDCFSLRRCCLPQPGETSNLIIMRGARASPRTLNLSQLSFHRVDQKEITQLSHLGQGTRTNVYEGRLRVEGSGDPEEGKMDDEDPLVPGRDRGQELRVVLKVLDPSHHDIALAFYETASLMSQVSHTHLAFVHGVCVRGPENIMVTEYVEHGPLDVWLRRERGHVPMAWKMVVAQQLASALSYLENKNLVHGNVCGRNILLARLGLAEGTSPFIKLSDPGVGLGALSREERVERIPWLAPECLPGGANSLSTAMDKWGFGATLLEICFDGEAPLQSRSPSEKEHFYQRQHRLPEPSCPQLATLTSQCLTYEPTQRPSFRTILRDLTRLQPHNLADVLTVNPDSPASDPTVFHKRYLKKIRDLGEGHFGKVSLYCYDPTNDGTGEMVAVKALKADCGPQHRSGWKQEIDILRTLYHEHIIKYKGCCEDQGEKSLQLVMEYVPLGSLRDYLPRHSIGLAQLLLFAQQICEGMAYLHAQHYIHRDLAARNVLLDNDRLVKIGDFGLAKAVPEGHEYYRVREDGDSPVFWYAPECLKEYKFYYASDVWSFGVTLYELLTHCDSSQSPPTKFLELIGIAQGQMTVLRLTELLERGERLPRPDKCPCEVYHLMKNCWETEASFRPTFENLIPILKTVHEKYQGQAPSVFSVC
Chain of JAK 3 (P52333 whole entry): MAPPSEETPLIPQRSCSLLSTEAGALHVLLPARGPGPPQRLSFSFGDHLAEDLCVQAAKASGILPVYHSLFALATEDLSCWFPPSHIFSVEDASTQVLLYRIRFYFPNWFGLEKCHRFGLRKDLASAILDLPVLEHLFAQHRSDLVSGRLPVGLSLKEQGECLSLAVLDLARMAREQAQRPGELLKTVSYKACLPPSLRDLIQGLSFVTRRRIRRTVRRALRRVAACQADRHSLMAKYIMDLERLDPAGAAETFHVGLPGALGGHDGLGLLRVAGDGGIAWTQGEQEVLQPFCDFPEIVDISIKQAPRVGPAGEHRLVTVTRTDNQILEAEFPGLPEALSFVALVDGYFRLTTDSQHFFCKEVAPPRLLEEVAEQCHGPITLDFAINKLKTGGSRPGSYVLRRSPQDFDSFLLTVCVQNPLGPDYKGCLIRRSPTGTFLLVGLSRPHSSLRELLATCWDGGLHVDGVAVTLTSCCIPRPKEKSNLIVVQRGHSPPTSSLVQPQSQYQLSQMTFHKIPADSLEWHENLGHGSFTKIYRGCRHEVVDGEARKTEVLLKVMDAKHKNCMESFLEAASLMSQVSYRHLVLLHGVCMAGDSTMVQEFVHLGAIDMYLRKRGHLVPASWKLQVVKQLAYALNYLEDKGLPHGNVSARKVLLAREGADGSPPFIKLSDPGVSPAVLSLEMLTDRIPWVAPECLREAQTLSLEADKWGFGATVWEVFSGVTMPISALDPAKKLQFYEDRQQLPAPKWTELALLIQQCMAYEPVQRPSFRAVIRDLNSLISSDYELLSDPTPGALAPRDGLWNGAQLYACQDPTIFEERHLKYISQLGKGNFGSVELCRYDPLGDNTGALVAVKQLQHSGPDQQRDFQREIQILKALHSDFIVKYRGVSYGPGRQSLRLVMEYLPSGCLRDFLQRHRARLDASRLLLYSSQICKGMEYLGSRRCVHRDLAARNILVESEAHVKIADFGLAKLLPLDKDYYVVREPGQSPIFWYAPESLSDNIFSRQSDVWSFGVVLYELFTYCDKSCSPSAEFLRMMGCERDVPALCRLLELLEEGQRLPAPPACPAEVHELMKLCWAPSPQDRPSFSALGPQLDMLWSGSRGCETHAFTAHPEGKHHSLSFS

Take `CN(C)C(=O)Cn1nc(-c2cc(Cl)ccc2OC(F)F)c2cc(-c3cnn4cccnc34)cnc21` [Example 2a, 2-(3-(5-chloro-2-(difluoromethoxy)phenyl)-5-(pyrazolo[1,5-a]pyrimidin-3-yl)-1H-pyrazolo[3,4-b]pyridin-1-yl)-N,N-dimethylacetamide]: the “Biochemical Potency JAK 1 (pIC50)” value at JAK 1 [1] is on record as 7.3. Moreover, in assay [2], the IC50 was 631 nM.

As for `Cc1nn(-c2cc(Cl)ccc2OC(F)F)c2cc(-c3cnc4cccnn34)ncc12` [Example 6a, 1-(5-chloro-2-(difluoromethoxy)phenyl)-6-(imidazo[1,2-b]pyridazin-3-yl)-3-methyl-1H-pyrazolo[4,3-c]pyridine], the “Biochemical Potency JAK 1 (pIC50)” value at JAK 1 [1] is given as 8.4.

Regarding `Cc1nn(C2CCCN(C(=O)CC#N)C2)c2cc(-c3cnn4cccnc34)cnc12` (centres unmarked) [Example 10a, 3-(3-(3-methyl-6-(pyrazolo[1,5-a]pyrimidin-3-yl)-1H-pyrazolo[4,3-b]pyridin-1-yl)piperidin-1-yl)-3-oxopropanenitrile], on JAK 1 [1], the “Biochemical Potency JAK 1 (pIC50)” value was determined as 6.0. In assay [2], the IC50 was 6310 nM.

For the molecule `O=C(O)Cc1nn(-c2cc(Cl)ccc2OC(F)F)c2cc(-c3cnn4cccnc34)cnc12` [Example 5a, 2-(1-(5-chloro-2-(difluoromethoxy)phenyl)-6-(pyrazolo[1,5-a]pyrimidin-3-yl)-1H-pyrazolo[4,3-b]pyridin-3-yl)acetic acid], the “Biochemical Potency JAK 1 (pIC50)” value at JAK 1 [1] stood at 7.7. The IC50 in assay [2] was 6310 nM.

For the molecule `COC(=O)c1nn(-c2cc(Cl)ccc2OC(F)F)c2cc(-c3cnn4cccnc34)cnc12` [Example 3a, methyl 1-(5-chloro-2-(difluoromethoxy)phenyl)-6-(pyrazolo[1,5-a]pyrimidin-3-yl)-1H-pyrazolo[4,3-b]pyridine-3-carboxylate], the “Biochemical Potency JAK 1 (pIC50)” value on JAK 1 [1] came to 8.1.

With `Cc1nn(-c2cc(Cl)ccc2OC(F)F)c2cc(-c3cnn4cccnc34)cnc12` [Example 9a, 1-(5-chloro-2-(difluoromethoxy)phenyl)-3-methyl-6-(pyrazolo[1,5-a]pyrimidin-3-yl)-1H-pyrazolo[4,3-b]pyridine], on JAK 1 [1], the “Biochemical Potency JAK 1 (pIC50)” value was 7.8. The IC50 in assay [2] is 50.1 nM.

For `Cc1nn(-c2cc(Cl)ccc2OC(F)F)c2cc(-c3cnn4cccnc34)ncc12` [Example 7a, 1-(5-chloro-2-(difluoromethoxy)phenyl)-3-methyl-6-(pyrazolo[1,5-a]pyrimidin-3-yl)-1H-pyrazolo[4,3-c]pyridine], on JAK 1 [1], the “Biochemical Potency JAK 1 (pIC50)” value is recorded as 8.5. The IC50 in assay [2] is 39.8 nM.

`CN(C)C(=O)Cc1nn(-c2cc(Cl)ccc2OC(F)F)c2cc(-c3cnn4cccnc34)cnc12` [Example 4a, 2-(1-(5-chloro-2-(difluoromethoxy)phenyl)-6-(pyrazolo[1,5-a]pyrimidin-3-yl)-1H-pyrazolo[4,3-b]pyridin-3-yl)-N,N-dimethylacetamide]: the “Biochemical Potency JAK 1 (pIC50)” value on JAK 1 [1] amounted to 7.8. The IC50 in assay [2] was 316 nM.

Regarding `Cc1nn(Cc2ccc(Cl)cc2F)c2cc(-c3cnc4cccnn34)cnc12` [Example 8a, 1-(4-chloro-2-fluorobenzyl)-6-(imidazo[1,2-b]pyridazin-3-yl)-3-methyl-1H-pyrazolo[4,3-b]pyridine], at JAK 1 [1], the “Biochemical Potency JAK 1 (pIC50)” value is on record as 6.7. Also, in assay [2], the IC50 was 794 nM.

For the molecule `CNS(=O)(=O)c1ccc(-n2nc(NCCN3CCOCC3)c3cnc(-c4cnn5cccnc45)cc32)c(OC)c1` [Example 50, 3-methoxy-N-methyl-4-(3-((2-morpholinoethyl)amino)-6-(pyrazolo[1,5-a]pyrimidin-3-yl)-1H-pyrazolo[4,3-c]pyridin-1-yl)benzenesulfonamide], the IC50 at JAK 1 [3] is not above 5.01 nM; at JAK 3, not above 5.01 nM; on JAK 2 it was not above 5.01 nM; at TYK2, 5.01 to 50.1 nM.

Consider `CNc1nn(-c2ccc(CNS(C)(=O)=O)cc2OC)c2cc(-c3cnn4cccnc34)ncc12` [Example 55, N-(3-methoxy-4-(3-(methylamino)-6-(pyrazolo[1,5-a]pyrimidin-3-yl)-1H-pyrazolo[4,3-c]pyridin-1-yl)benzyl)methanesulfonamide], for which the IC50 is not above 5.01 nM on JAK 1 [3], not above 5.01 nM on JAK 3, not above 5.01 nM at JAK 2 and 5.01 to 50.1 nM at TYK2.

Regarding `COc1cc(NC(=O)c2ccccc2)ccc1-n1nc(NCCN(C)C)c2cnc(-c3cnn4cccnc34)cc21` [Example 75, N-(4-(3-((2-(dimethylamino)ethyl)amino)-6-(pyrazolo[1,5-a]pyrimidin-3-yl)-1H-pyrazolo[4,3-c]pyridin-1-yl)-3-methoxyphenyl)benzamide], the IC50 at JAK 1 [3] was 5.01 to 50.1 nM; on JAK 3 it was 5.01 to 50.1 nM; on JAK 2 it was 5.01 to 50.1 nM; on TYK2, more than 50.1 nM.

`CNC(=O)NCc1ccc(-n2nc(C)c3cnc(-c4cnn5cccnc45)cc32)c(OC)c1` [Example 71, 1-(3-methoxy-4-(3-methyl-6-(pyrazolo[1,5-a]pyrimidin-3-yl)-1H-pyrazolo[4,3-c]pyridin-1-yl)benzyl)-3-methylurea]: the IC50 was 5.01 to 50.1 nM on JAK 1 [3], 5.01 to 50.1 nM at JAK 3, 5.01 to 50.1 nM at JAK 2 and more than 50.1 nM on TYK2.

Take `COc1cc(NS(C)(=O)=O)ccc1-n1nc(NCCCN(C)C)c2cnc(-c3cnn4cccnc34)cc21` [Example 22, N-(4-(3-((3-(dimethylamino)propyl)amino)-6-(pyrazolo[1,5-a]pyrimidin-3-yl)-1H-pyrazolo[4,3-c]pyridin-1-yl)-3-methoxyphenyl)methanesulfonamide]: the IC50 at JAK 1 [3] is not above 5.01 nM; on JAK 3, not above 5.01 nM; at JAK 2 it was not above 5.01 nM; at TYK2, 5.01 to 50.1 nM.

On to `COc1cc(CNS(=O)(=O)C2CC2)ccc1-n1nc(C)c2cnc(-c3cnn4cccnc34)cc21` [Example 64, N-(3-methoxy-4-(3-methyl-6-(pyrazolo[1,5-a]pyrimidin-3-yl)-1H-pyrazolo[4,3-c]pyridin-1-yl)benzyl)cyclopropanesulfonamide], for which the IC50 is not above 5.01 nM on JAK 1 [3], not above 5.01 nM at JAK 3, not above 5.01 nM on JAK 2 and 5.01 to 50.1 nM on TYK2.

Regarding `CNC(=O)c1ccc(-n2nc(C)c3cnc(-c4cnn5cccnc45)cc32)c(OC)c1` [Example 19, 3-methoxy-N-methyl-4-(3-methyl-6-(pyrazolo[1,5-a]pyrimidin-3-yl)-1H-pyrazolo[4,3-c]pyridin-1-yl)benzamide], the IC50 at JAK 1 [3], at JAK 3, on JAK 2 and on TYK2 was more than 50.1 nM each time.

`OCc1nn(-c2cc(Cl)ccc2OC(F)F)c2cc(-c3cnn4cccnc34)cnc12` [Example 1a, (1-(5-chloro-2-(difluoromethoxy)phenyl)-6-(pyrazolo[1,5-a]pyrimidin-3-yl)-1H-pyrazolo[4,3-b]pyridin-3-yl)methanol]: the “Biochemical Potency JAK 1 (pIC50)” value at JAK 1 [1] was found to be 8.1. In addition, in assay [2], the IC50 is 50.1 nM.

As for `COc1cc(NS(C)(=O)=O)c(F)cc1-n1nc(C)c2cnc(-c3cnn4cccnc34)cc21` [Example 12, N-(2-fluoro-5-methoxy-4-(3-methyl-6-(pyrazolo[1,5-a]pyrimidin-3-yl)-1H-pyrazolo[4,3-c]pyridin-1-yl)phenyl)methanesulfonamide], the IC50 on JAK 1 [3] was 5.01 to 50.1 nM; at JAK 3, 5.01 to 50.1 nM; at JAK 2 it was 5.01 to 50.1 nM; on TYK2, more than 50.1 nM.
